The values below come from article PMC5806375, “Characterization and expression analysis of a newly identified glutathione S-transferase of the hard tick Haemaphysalis longicornis during blood-feeding” (Parasites & Vectors, 2018).

In experiment [1] the target is T1, HlGST2 (recombinant HlGST2, rHlGST2) (Haemaphysalis longicornis, UniProt A0A2Z6FA39).
T1 construct: gene GST
As to the kind of experiment: absorbance at […] nm, Lineweaver-Burk plot. The experiment is classed as biochemical. Conditions: 5 mM GSH, CDNB 0.125-2 mM, 100 mM Tris-HCl pH 7.5, 25 °C, 5% methanol; read-out: CDNB kinetic constant^a.

In experiment [2] the target is T2, HlGST (recombinant HlGST, rHlGST) (Haemaphysalis longicornis, UniProt Q6JVN0).
T2 construct: gene GST
T2 sequence (Q6JVN0 1-223): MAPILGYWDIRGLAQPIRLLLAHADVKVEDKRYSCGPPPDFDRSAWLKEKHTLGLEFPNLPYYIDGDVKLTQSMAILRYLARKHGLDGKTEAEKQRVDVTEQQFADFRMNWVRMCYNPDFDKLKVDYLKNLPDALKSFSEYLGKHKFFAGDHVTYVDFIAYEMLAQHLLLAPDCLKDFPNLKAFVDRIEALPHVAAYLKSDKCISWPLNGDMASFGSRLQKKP
As to the kind of experiment: absorbance at […] nm, Lineweaver-Burk plot. The experiment is classed as biochemical. Conditions: 5 mM GSH, CDNB 0.125-2 mM, 100 mM Tris-HCl pH 7.5, 25 °C, 5% methanol; read-out: CDNB kinetic constant^a.

T1 sequence (A0A2Z6FA39 1-230): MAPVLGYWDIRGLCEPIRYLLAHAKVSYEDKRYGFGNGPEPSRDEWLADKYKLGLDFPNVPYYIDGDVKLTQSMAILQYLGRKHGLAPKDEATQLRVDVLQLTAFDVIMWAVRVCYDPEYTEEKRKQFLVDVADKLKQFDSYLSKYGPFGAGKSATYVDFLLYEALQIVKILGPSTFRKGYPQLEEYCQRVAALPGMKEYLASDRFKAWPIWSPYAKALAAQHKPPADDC

As for `O=[N+]([O-])c1ccc(Cl)c([N+](=O)[O-])c1` [CDNB, 1-chloro-2,4-dinitrobenzene], the Km is 610 ± 200 µM in experiment [1] and 820 ± 140 µM in experiment [2].
